This is an account of results in PMC10673624 (Current research in chemical biology, 2023).

In test [1] the target is T1, STK16 (Homo sapiens, UniProt O75716). The test is described as follows: NanoBRET in-cell target engagement. It counts as cell-based. In general terms: Bioluminescence resonance energy transfer reports proximity on the nanometre scale.
Test [2] concerns the target T2, HIPK2 (Homo sapiens, UniProt Q9H2X6). Description: Eurofins enzymatic assay. In kind it is biochemical.
Test [3] deals with BT-20. Description: Crystal violet cell proliferation. In kind it is cell-based. To be noted: BT-20, denoted concentrations, 7 days (Fig. 6a).
Test [4] deals with pSR and CLK2 localization, U118-MG and MDA-MB-435 cells. Description: Immunofluorescence of pSR and CLK2 localization. In kind it is cell-based. As to conditions: 500 nM, over the course of 60 min.
Test [5] has as its system U118-MG. The test is described as follows: Crystal violet cell proliferation. It counts as cell-based. As to conditions: denoted concentrations, 7 days (Fig. 6a).
For test [6], the target named is T2, HIPK2. The test is described as follows: NanoBRET in-cell target engagement. In kind it is cell-based.
For test [7], the target named is T3, CLK1 (Homo sapiens, UniProt P49759). Description: NanoBRET in-cell target engagement. In kind it is cell-based.
T3 sequence (P49759 whole entry): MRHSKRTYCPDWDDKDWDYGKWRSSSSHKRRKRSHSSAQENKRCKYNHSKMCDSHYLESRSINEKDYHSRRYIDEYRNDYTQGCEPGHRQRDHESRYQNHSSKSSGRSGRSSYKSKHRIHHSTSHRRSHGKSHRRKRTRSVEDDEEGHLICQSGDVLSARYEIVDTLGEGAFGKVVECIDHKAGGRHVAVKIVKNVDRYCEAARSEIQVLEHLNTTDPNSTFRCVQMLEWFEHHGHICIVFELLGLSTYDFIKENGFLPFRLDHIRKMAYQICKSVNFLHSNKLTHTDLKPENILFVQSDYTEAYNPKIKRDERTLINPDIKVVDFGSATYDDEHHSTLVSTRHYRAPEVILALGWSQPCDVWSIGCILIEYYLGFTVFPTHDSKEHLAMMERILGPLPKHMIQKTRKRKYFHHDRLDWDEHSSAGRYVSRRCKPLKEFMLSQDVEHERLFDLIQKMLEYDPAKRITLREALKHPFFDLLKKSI
The test system of test [8] is SR phosphorylation (pSR), U118-MG cells. Description: Western blot of phosphorylated SR proteins. It counts as cell-based. Background: Immunoblotting shows a protein as a band on a membrane.
For test [9], the system named is CLK2 or pSR distribution, BT-20. Description: Immunofluorescence of pSR and CLK2 localization. It counts as cell-based.
Test [10] addresses T1, STK16. Description: Eurofins enzymatic assay. It counts as biochemical.
Test [11] deals with MDA-MB-435. Description: Crystal violet cell proliferation. In kind it is cell-based. As to conditions: MDA-MB-435, denoted concentrations, 7 days (Fig. 6a).
For test [12], the system named is 100 different cancer cell lines. The test is described as follows: ProQinase CL100 cancer cell line panel. In kind it is cell-based. To be noted: of 100 cell lines tested, CellTiter-Glo.
In test [13] the target is T4, HIPK1 (Homo sapiens, UniProt Q86Z02). The test is described as follows: NanoBRET in-cell target engagement. It counts as cell-based.
T4 sequence (Q86Z02 whole entry): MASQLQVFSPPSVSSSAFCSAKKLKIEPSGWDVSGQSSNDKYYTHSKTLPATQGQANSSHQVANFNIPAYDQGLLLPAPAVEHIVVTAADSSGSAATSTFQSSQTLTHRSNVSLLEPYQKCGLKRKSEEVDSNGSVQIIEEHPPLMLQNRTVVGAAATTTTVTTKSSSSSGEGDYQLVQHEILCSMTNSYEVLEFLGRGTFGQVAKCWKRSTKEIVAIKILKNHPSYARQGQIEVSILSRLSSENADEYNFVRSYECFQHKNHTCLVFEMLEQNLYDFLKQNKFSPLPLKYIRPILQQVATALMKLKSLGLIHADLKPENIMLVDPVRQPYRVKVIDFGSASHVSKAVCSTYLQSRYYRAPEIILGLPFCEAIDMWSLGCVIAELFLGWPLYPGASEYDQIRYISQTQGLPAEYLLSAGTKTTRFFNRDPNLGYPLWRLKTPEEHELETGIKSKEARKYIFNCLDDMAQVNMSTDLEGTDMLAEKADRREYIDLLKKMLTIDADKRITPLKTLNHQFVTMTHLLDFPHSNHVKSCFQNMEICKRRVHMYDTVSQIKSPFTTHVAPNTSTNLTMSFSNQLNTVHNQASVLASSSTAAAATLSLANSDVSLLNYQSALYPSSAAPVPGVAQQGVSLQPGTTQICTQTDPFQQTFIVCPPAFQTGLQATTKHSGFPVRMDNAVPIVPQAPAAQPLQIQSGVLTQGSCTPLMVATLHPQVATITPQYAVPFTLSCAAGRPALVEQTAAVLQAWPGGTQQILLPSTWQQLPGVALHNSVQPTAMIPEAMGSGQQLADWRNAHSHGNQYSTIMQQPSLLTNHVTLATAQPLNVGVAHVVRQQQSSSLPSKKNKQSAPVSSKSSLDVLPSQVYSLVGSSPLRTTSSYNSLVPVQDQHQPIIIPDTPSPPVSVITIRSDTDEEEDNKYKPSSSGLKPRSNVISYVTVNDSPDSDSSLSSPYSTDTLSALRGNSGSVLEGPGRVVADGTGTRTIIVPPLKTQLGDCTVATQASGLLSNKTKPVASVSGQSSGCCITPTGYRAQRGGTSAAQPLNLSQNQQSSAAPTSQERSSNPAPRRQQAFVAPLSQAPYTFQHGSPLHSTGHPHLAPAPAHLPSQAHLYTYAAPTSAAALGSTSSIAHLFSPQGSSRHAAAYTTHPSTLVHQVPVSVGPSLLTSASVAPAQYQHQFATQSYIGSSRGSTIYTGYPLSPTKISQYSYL
Test [14] addresses ERK8 (MAPK15) (Homo sapiens, UniProt Q8TD08). Description: KINOMEscan scanMAX binding.
In test [15] the target is T4, HIPK1. Description: Eurofins enzymatic assay. In kind it is biochemical.
For test [16], the target named is T5, CLK2 (Homo sapiens, UniProt P49760). The test is described as follows: Eurofins enzymatic assay. It counts as biochemical.
T5 sequence (P49760 whole entry): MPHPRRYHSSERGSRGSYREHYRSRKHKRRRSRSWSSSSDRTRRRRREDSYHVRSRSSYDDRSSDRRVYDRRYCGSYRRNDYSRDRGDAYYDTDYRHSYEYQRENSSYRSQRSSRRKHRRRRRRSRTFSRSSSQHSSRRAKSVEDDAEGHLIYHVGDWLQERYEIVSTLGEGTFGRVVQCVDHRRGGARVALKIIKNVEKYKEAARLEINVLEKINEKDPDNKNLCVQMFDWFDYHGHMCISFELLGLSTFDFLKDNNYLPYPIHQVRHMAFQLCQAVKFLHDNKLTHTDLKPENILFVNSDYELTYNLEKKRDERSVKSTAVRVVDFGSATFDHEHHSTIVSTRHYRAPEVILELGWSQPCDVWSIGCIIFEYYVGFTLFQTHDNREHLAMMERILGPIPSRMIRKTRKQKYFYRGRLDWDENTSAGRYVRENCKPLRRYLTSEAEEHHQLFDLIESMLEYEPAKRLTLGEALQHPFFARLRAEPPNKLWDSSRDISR
Test [17] has as its target T6, CLK4 (Homo sapiens, UniProt Q9HAZ1). Description: NanoBRET in-cell target engagement. In kind it is cell-based.
The target in test [18] is CLK4. Description: Luceome KinaseSeeker binding. To be noted: CLK4, 1 μM.
For test [19], the target named is T3, CLK1. Description: Luceome KinaseSeeker binding. As to conditions: read-out: KinaseSeeker activity remaining.
The target in test [20] is T3, CLK1. The test is described as follows: Eurofins enzymatic assay. In kind it is biochemical.
Test [21] concerns 403 wildtype (WT) human as well as several mutant and nonhuman kinases. In kind it is binding. As to conditions: no kinase bound below this PoC.
Test [22] concerns the target T6, CLK4. Description: Eurofins enzymatic assay. In kind it is biochemical.
Test [23] deals with T5, CLK2. The test is described as follows: NanoBRET in-cell target engagement. In kind it is cell-based.
Test [24] has as its target T5, CLK2. Description: Luceome KinaseSeeker binding. To be noted: read-out: KinaseSeeker activity remaining.
The target of test [25] is CLK3 (Homo sapiens, UniProt P49761). Description: Eurofins enzymatic assay. In kind it is biochemical.
For test [26], the system named is CLK. To be noted: ref SGC chemical probe website (thesgc.org/chemical-probes/MU1210, /T3-CLK); cited from earlier work.

Structures are written as SMILES. Where only a bound is given, the exact number is not on record here.

T2 sequence (Q9H2X6 whole entry): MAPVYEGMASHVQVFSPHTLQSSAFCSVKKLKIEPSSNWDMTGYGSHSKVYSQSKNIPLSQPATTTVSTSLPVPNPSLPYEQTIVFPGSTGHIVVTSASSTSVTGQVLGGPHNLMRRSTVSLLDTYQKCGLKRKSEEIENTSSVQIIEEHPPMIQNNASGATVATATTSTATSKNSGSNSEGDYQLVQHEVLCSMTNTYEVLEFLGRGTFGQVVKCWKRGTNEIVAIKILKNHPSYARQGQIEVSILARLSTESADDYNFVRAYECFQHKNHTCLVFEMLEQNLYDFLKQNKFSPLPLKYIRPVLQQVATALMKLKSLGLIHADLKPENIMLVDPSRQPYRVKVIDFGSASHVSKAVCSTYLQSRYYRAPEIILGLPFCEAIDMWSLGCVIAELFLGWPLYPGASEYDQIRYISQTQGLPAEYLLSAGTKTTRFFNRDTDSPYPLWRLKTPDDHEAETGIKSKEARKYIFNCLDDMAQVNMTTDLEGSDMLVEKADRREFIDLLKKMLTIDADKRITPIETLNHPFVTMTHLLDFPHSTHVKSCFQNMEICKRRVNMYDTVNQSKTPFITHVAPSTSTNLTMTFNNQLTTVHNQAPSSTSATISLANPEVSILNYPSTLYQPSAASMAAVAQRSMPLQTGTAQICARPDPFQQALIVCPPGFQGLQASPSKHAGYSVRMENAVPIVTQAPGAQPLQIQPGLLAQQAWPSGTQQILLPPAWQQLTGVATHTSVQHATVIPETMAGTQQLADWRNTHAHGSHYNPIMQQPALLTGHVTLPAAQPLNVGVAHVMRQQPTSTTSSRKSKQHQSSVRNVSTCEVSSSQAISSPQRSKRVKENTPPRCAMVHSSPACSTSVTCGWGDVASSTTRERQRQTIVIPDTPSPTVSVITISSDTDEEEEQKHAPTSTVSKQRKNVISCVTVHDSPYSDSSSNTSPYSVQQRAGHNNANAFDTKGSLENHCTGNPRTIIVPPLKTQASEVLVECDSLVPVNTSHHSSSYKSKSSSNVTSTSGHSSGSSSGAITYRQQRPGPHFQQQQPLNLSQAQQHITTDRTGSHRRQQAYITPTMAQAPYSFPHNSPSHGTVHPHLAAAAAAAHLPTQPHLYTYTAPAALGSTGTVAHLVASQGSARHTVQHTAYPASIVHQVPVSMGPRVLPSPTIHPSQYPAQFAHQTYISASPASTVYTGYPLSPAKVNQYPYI
ERK8 (MAPK15), sequence (Q8TD08 whole entry): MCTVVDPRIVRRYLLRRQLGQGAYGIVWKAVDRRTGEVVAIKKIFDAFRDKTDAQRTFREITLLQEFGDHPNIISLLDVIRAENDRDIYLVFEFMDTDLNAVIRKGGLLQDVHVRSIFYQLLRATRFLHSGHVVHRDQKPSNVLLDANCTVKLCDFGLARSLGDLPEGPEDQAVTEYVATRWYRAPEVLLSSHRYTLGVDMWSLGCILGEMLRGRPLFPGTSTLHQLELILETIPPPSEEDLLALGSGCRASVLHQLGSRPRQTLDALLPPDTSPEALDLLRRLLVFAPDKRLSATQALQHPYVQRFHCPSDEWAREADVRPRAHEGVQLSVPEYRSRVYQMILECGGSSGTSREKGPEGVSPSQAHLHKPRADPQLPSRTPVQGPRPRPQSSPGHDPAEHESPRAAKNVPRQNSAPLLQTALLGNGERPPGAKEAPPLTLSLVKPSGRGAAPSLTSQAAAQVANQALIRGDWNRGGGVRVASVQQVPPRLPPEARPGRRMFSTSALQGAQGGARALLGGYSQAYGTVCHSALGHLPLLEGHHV
T6 sequence (Q9HAZ1 whole entry): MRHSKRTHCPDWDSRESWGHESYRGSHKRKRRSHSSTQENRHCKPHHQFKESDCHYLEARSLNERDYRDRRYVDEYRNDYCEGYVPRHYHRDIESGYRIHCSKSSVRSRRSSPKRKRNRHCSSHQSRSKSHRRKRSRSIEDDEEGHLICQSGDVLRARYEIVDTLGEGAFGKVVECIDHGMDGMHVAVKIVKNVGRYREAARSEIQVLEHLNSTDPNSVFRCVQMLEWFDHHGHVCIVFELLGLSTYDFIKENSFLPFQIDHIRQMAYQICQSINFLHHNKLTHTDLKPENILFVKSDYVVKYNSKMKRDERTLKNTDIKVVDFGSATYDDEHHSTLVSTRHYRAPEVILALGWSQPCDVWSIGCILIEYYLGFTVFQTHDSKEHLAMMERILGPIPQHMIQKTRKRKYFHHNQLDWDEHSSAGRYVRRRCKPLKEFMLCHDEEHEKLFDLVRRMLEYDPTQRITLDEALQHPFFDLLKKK
T1 sequence (O75716 whole entry): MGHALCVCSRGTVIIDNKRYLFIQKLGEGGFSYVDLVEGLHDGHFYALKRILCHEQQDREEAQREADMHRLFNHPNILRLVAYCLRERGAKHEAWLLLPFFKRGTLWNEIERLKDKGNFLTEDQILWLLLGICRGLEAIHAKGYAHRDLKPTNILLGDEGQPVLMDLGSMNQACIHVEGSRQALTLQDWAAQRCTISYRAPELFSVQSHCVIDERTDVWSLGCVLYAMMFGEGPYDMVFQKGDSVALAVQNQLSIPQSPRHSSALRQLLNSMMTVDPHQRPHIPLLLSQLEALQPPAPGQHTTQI

Take `COc1cc(Nc2nccc(-c3cnn4nc(OC)ccc34)n2)cc(C(F)(F)F)c1` [SGC-CLK-1, N-(3-methoxy-5-(trifluoromethyl)phenyl)-4-(6-methoxypyrazolo[1,5-b]pyridazin-3-yl) pyrimidin-2-amine]: in [1], the “NanoBRET binding (in words)” value is “only partial inhibition”. The IC50 (commonly the concentration at which inhibition is half-maximal) in test [2] was 0.042 µM; in test [6] it was more than 10 µM; in test [7] (Cellular IC50 (NanoBRET), CLK1, HEK293, Tracer K5), 0.154 ± 0.05 µM; in test [10], 0.049 µM; in test [13], more than 10 µM; in test [15], 0.05 µM. Also, the “Effect on cell growth (crystal violet)” value in test [3] is recorded as “no growth change”; in test [5], “dose-dependent decrease in the growth”; in test [11], “dose-dependent decrease in the growth”. Also, the “Effect on pSR and CLK2 localization” value in test [4] was “significant changes in the cellular distribution of both pSRs and CLK2”. Also, the “Change in SR phosphorylation (pSR)” value is reported as “did not detect significant pSR changes” in test [8] (1 μM, highest treatment condition) and “decrease in SR phosphorylation” in test [8] (5 μM, 30 min post treatment, U118-MG). Also, in test [9], the “Effect on CLK2 or pSR distribution” value was “did not observe a difference in CLK2 or pSR distribution”. Moreover, the “Cell lines with IC50 for inhibiting proliferation <250 nM” value in test [12] is on record as 27/100. For the same compound, the “% Control (1 μM)” value in test [14] (ERK8 (MAPK15), 1 μM) is reported as 21%. Besides, the remaining binding at 1 µM in [14] (read-out: % Control (1 μM), ERK8 (MAPK15), 1 μM) is less than 35%.
In the case of `CCOc1ccc2c(-c3cc(C)nc(Nc4cc(OC)cc(C(F)(F)F)c4)n3)cnn2n1` [SGC-CLK-1N, 4-(6-ethoxypyrazolo [1,5-b]pyridazin-3-yl)-N-(3-methoxy-5-(trifluoromethyl)phenyl)-6-methylpyrimidin-2-amine], the “Enzymatic inhibition (in words)” value in [16], in test [20], in [22] and in [25] was “no inhibition” in each case. Also, the “NanoBRET activity (in words)” value in test [17], in test [7] (CLK1) and in test [23] was “inactive” in each case. In addition, the KinaseSeeker activity remaining in test [18] is 100%. In addition, the “Effect on cell growth (crystal violet)” value in [5] and in [11] was “little effect” throughout. For the same compound, the remaining activity at 1 µM in test [19] and in test [24] was 100% each time. In addition, in [9], the “Effect on CLK2 or pSR distribution” value is recorded as “did not observe a difference in CLK2 or pSR distribution”. The “PoC of any kinase in the KINOMEscan panel” value in test [21] is not below 45.
On to `Cn1cc(-c2ccc3occ(-c4cccc(-c5ccncc5)c4)c3n2)cn1` [Compound 1, reference compound], for which, in test [4], the “Effect on pSR and CLK2 localization” value was “did not show any effect on pSR or CLK2 localization”. Also, in test [26], the “Activity in the CLK nanoBRET assays” value is on record as “active”.
